“Also recorded” adds a separate entry of the source.
Key:
[1] = test system: methicillin-resistant Staphylococcus aureus (MRSA); experiment: kill curve time course of MRSA suspensions (CFU survival); type: cell-based
Method: FIGS. 1 through 17 illustrate kill curve time course experiments of stationary and logarithmic-phase MRSA bacterial suspensions exposed to PBS as well as denaturing SS at pH […] or pH 7.4 in the presence of cloxacillin concentrations spanning from 512 μg/ml to 4096 μg/ml. Experiments were conducted at 22° C. or 35° C. The completion time for the experiments ranged from 20 minutes to 24 hours.
For these experiments, the MRSA strain was grown overnight in Mueller-Hinton broth (MH)+2% NaCl at 35° C., subcultured into fresh media, and grown to mid-logarithmic phase. The cells were centrifuged and resuspended in pH 7.4 MH+2% NaCl to produce an OD600 nm known to indicate logarithmic-phase or stationary-phase of growth. An appropriate volume of cells was added to 1 ml of buffered SS in a 10 ml Falcon tube to yield a final concentration of ca. 1×10^8 colony forming units (CFU)/ml, except for the experiments of FIGS. 1-4 where the final concentration of ca. 1×10^6 CFU/ml applies. Survival was determined for bacteria held for varied exposure times of up to 24 hours in the SS or in PBS at pH 5.6 or pH 7.4, each altered with cloxacillin concentrations ranging in doublings from 512 μg/ml to 4096 μg/ml. Survival was measured from samples held at 22° C. and 35° C. After exposure, samples of 50 μl were then withdrawn and a serial dilution series established. Cells were then plated on MH+2% NaCl agar plates and incubated at 22° C. or 35° C. for CFU formation, after which colonies were counted, surviving fractions recorded, and survival curves constructed. Triplicate experiments were conducted for each exposure condition. The cells were treated under static conditions in all cases and treatments were always made on cells held in salt solutions, never on cells held in growth media. In addition to logarithmic-phase cells, stationary-phase cells removed from growth cycle were also treated.
Killing efficiency is evaluated as therapeutically sufficient according to the 10^−5 level of killing in 5 minutes specified by the British Standard BS EN 1276:1997 Chemical Disinfectants and Antiseptics, which is referred to as the gold standard for efficacy of bactericidal agents. Typically, agents meeting the British Standard are too toxic for human topical application. However, this is not a restriction for effective SS containing cloxacillin used in the illustrated embodiment.

Pseudomonas aeruginosa = experiment: kill curve time course of Pseudomonas aeruginosa suspensions (CFU survival); type: cell-based; settings: for killing: 20 minutes
Method: FIGS. 18 through 41 illustrate kill curve time-course experiments of stationary-phase and logarithmic-phase Pseudomonas aeruginosa bacterial suspensions exposed to PBS, to SS, to PBS in the presence of cloxacillin concentrations spanning from 512 μg/ml to 4096 μg/ml, or to SS in the presence of cloxacillin concentrations spanning from 512 μg/ml to 4096 μg/ml. Experiments were conducted at 22° C. or 35° C. over the course of 10, 20, or 60 minutes.
Pseudomonas aeruginosa cells were prepared as described above for MRSA with a few exceptions. The Pseudomonas aeruginosa cells were first grown in trypticase soy broth and then frozen in aliquots, which were later rescued into MH broth+2% NaCl for use as in the MRSA experiments. An appropriate volume of cells was added to 1 ml of comparative salt solutions in a 10 ml Falcon tube to yield a final concentration of ca. 1×10^8 colony forming units (CFU)/ml. Survival was determined for bacteria held for varied exposure times of up to 60 minutes in PBS, in SS, in PBS altered with cloxacillin concentrations ranging in doublings from 512 μg/ml to 4096 μg/ml, or in SS containing cloxacillin concentrations ranging in doublings from 512 μg/ml to 4096 μg/ml. The salt solutions were compared at a pH of 5.6 or 7.4. Survival was measured from samples held at 22° C. or 35° C. After exposure, samples of 50 μl were then withdrawn and a serial dilution series established. Cells were then plated on MH+2% NaCl agar plates and incubated at 22° C. or 35° C. for CFU formation, after which colonies were counted, surviving fractions recorded, and survival curves constructed. Triplicate experiments were conducted for each exposure condition. The cells were treated under static conditions in all cases and treatments were always made on cells held in salt solutions, never on cells held in growth media. In addition to logarithmic-phase cells, stationary-phase cells removed from growth cycle were also treated.

SMILES: Cc1onc(-c2ccccc2Cl)c1C(=O)N[C@@H]1C(=O)N2[C@@H]1SC(C)(C)[C@@H]2C(=O)O [cloxacillin]
- killing effect ([1]; FIG. 1, pH 5.5 PBS, 1024 μg/ml cloxacillin, 22° C., logarithmic-phase MRSA, 20 minute): non-substantial killing effect; also recorded: not effective
- killing effect ([1]; FIG. 2, pH 7.4 PBS, 512 μg/ml cloxacillin, 22° C., logarithmic-phase MRSA, 20 minute): non-substantial killing effect; also recorded: not effective
- killing effect ([1]; FIG. 3, pH 5.5 SS, 1024 μg/ml cloxacillin, 22° C., logarithmic-phase MRSA, 20 minute): not effective; also recorded: non-substantial killing effect
- killing effect ([1]; FIG. 4, pH 7.4 SS, 512 μg/ml cloxacillin, 22° C., logarithmic-phase MRSA, 60 minute): substantial killing; also recorded: killing effect
- surviving fraction ([1]; FIG. 4, pH 7.4 SS, 512 μg/ml cloxacillin, 22° C., logarithmic-phase MRSA, all time points, no survivors on treated plates): < 2×10^−4
- killing effect ([1]; FIG. 5, pH 7.4 SS, 512 μg/ml cloxacillin, 22° C., stationary-phase MRSA, 60 minute): killing effect
- killing effect ([1]; FIG. 6, pH 7.4 SS, 1024 μg/ml cloxacillin, 22° C., stationary-phase MRSA, 60 minute): killing effect
- killing effect ([1]; FIG. 7, pH 7.4 SS, 2048 μg/ml cloxacillin, 22° C., stationary-phase MRSA, 60 minute): killing effect
- killing effect ([1]; FIG. 8, pH 7.4 SS, 4096 μg/ml cloxacillin, 22° C., stationary-phase MRSA, 60 minute): killing effect
- time in which the 10^−5 level of killing is achieved ([1]; FIG. 9, pH 7.4 SS, 4096 μg/ml cloxacillin, 22° C., stationary-phase MRSA): 3 hours
- killing effect ([1]; FIG. 9, pH 7.4 SS, 4096 μg/ml cloxacillin, 22° C., stationary-phase MRSA, 24 hour): killing effect
- killing effect ([1]; FIG. 10, pH 7.4 SS, 512 μg/ml cloxacillin, 35° C., logarithmic-phase MRSA, 20 minute): killing effect
- killing effect ([1]; FIG. 11, pH 7.4 SS, 1024 μg/ml cloxacillin, 35° C., logarithmic-phase MRSA, 20 minute): killing effect
- killing effect ([1]; FIG. 12, pH 7.4 SS, 2048 μg/ml cloxacillin, 35° C., logarithmic-phase MRSA, 20 minute): killing effect
- killing effect ([1]; FIG. 13, pH 7.4 SS, 4096 μg/ml cloxacillin, 35° C., logarithmic-phase MRSA, 20 minute): killing effect
- killing effect ([1]; FIG. 14, pH 7.4 SS, 512 μg/ml cloxacillin, 35° C., stationary-phase MRSA, 60 minute): killing effect
- killing effect ([1]; FIG. 15, pH 7.4 SS, 1024 μg/ml cloxacillin, 35° C., stationary-phase MRSA, 60 minute): killing effect
- killing effect ([1]; FIG. 16, pH 7.4 SS, 2048 μg/ml cloxacillin, 35° C., stationary-phase MRSA, 60 minute): killing effect
- killing effect ([1]; FIG. 17, pH 7.4 SS, 4096 μg/ml cloxacillin, 35° C., stationary-phase MRSA, 60 minute): killing effect
- efficiency of killing versus British Standard BS EN 1276:1997 (10^−5 level of killing in 5 minutes) ([1]; FIGS. 5-9, pH 7.4 SS, 512 to 4096 μg/ml cloxacillin, 22° C., stationary-phase MRSA): does not provide the 10^−5 level of killing in 5 minutes
- killing compared with 22° C. ([1]; FIGS. 10-13, pH 7.4 SS, 512 to 4096 μg/ml cloxacillin, 35° C., logarithmic-phase MRSA): killing is enhanced
- killing compared with 22° C. ([1]; FIGS. 14-17, pH 7.4 SS, 512 to 4096 μg/ml cloxacillin, 35° C., stationary-phase MRSA): enhanced killing
- efficiency of killing versus British Standard BS EN 1276:1997 (10^−5 level of killing in 5 minutes) ([1]; pH 7.4 SS with cloxacillin, 35° C., logarithmic-phase MRSA): approaches or exceeds the 10^−5 level of killing in 5 minutes
- efficiency of killing versus British Standard BS EN 1276:1997 (10^−5 level of killing in 5 minutes) ([1]; pH 7.4 SS with cloxacillin, 35° C., stationary-phase MRSA): approaches or exceeds the 10^−5 level of killing in 5 minutes
- killing effect (Pseudomonas aeruginosa; FIG. 22, pH 7.4 PBS, 512 μg/ml cloxacillin, 22° C., logarithmic-phase, 20 minute): non-substantial killing effect
- killing effect (Pseudomonas aeruginosa; FIG. 23, pH 7.4 PBS, 1024 μg/ml cloxacillin, 22° C., logarithmic-phase, 20 minute): non-substantial killing effect
- killing effect (Pseudomonas aeruginosa; FIG. 24, pH 7.4 PBS, 2048 μg/ml cloxacillin, 22° C., logarithmic-phase, 20 minute): non-substantial killing effect
- killing effect (Pseudomonas aeruginosa; FIG. 25, pH 7.4 PBS, 4096 μg/ml cloxacillin, 22° C., logarithmic-phase, 20 minute): non-substantial killing effect
- killing effect (Pseudomonas aeruginosa; FIG. 26, pH 7.4 SS, 512 μg/ml cloxacillin, 22° C., logarithmic-phase, 20 minute): killing effect
- killing effect (Pseudomonas aeruginosa; FIG. 27, pH 7.4 SS, 1024 μg/ml cloxacillin, 22° C., logarithmic-phase, 20 minute): killing effect
- killing effect (Pseudomonas aeruginosa; FIG. 28, pH 7.4 SS, 2048 μg/ml cloxacillin, 22° C., logarithmic-phase, 10 minute): killing effect
- killing effect (Pseudomonas aeruginosa; FIG. 29, pH 7.4 SS, 4096 μg/ml cloxacillin, 22° C., logarithmic-phase, 10 minute): killing effect
- killing effect (Pseudomonas aeruginosa; FIG. 30, pH 7.4 PBS, 512 μg/ml cloxacillin, 35° C., logarithmic-phase, 20 minute): non-substantial killing effect
- killing effect (Pseudomonas aeruginosa; FIG. 31, pH 7.4 PBS, 1024 μg/ml cloxacillin, 35° C., logarithmic-phase, 20 minute): non-substantial killing effect
- killing effect (Pseudomonas aeruginosa; FIG. 32, pH 7.4 PBS, 2048 μg/ml cloxacillin, 35° C., logarithmic-phase, 20 minute): non-substantial killing effect
- killing effect (Pseudomonas aeruginosa; FIG. 33, pH 7.4 PBS, 4096 μg/ml cloxacillin, 35° C., logarithmic-phase, 20 minute): non-substantial killing effect
- killing effect (Pseudomonas aeruginosa; FIG. 34, pH 7.4 SS, 512 μg/ml cloxacillin, 35° C., logarithmic-phase, 20 minute): killing effect
- killing effect (Pseudomonas aeruginosa; FIG. 35, pH 7.4 SS, 1024 μg/ml cloxacillin, 35° C., logarithmic-phase, 20 minute): killing effect
- killing effect (Pseudomonas aeruginosa; FIG. 36, pH 7.4 SS, 2048 μg/ml cloxacillin, 35° C., logarithmic-phase, 20 minute): killing effect
- killing effect (Pseudomonas aeruginosa; FIG. 37, pH 7.4 SS, 4096 μg/ml cloxacillin, 35° C., logarithmic-phase, 20 minute): killing effect
- killing effect (Pseudomonas aeruginosa; FIG. 38, pH 7.4 SS, 512 μg/ml cloxacillin, 22° C., stationary-phase, 20 minute): killing effect
- killing effect (Pseudomonas aeruginosa; FIG. 39, pH 7.4 SS, 1024 μg/ml cloxacillin, 22° C., stationary-phase, 20 minute): killing effect
- killing effect (Pseudomonas aeruginosa; FIG. 40, pH 7.4 SS, 2048 μg/ml cloxacillin, 22° C., stationary-phase, 20 minute): killing effect
- killing effect (Pseudomonas aeruginosa; FIG. 41, pH 7.4 SS, 4096 μg/ml cloxacillin, 22° C., stationary-phase, 20 minute): killing effect
- killing (Pseudomonas aeruginosa; FIGS. 22-25, PBS pH 7.4, 512 to 4096 μg/ml cloxacillin, 22° C., logarithmic-phase): non-substantial killing
- efficiency of killing (Pseudomonas aeruginosa; FIGS. 26-29, SS pH 7.4, all concentrations 512 to 4096 μg/ml cloxacillin, 22° C., logarithmic-phase, 10 or 20 minutes): substantially efficient in killing
- killing (Pseudomonas aeruginosa; FIGS. 30-33, PBS pH 7.4, 512 to 4096 μg/ml cloxacillin, 35° C., logarithmic-phase): non-substantial killing
- killing (Pseudomonas aeruginosa; FIGS. 34-37, SS pH 7.4, 512 to 4096 μg/ml cloxacillin, 35° C., logarithmic-phase): substantial killing
- killing (Pseudomonas aeruginosa; FIGS. 38-41, SS pH 7.4, 512 to 4096 μg/ml cloxacillin, 22° C., stationary-phase): substantial killing

Source: patent publication US8182842B1, “Physico-chemical-managed killing of penicillin-resistant static and growing gram-positive and gram-negative vegetative bacteria” (The United States of America as represented by the …, priority 2010, dated 2012)
